Assay results published in patent US9493479B2 (Merck Sharp & Dohme Corp., priority 2013, dated 2016).
Counter-ions that a name gives are not always drawn.

Assays:
HIV-1 (NL4-3 strain) = assay: ViKinG (Viral Kinetics GFP Reporter) assay for inhibition of HIV replication; format: cell-based; settings: Human immunodeficiency virus 1, NL43; MT4-GFP cells infected with HIV-1 NL4-3; RPMI + 10% or 50% NHS (not given); infected cells at 48 h / 24 h
Source text: The ViKinG (Viral Kinetics GFP Reporter) assay is an in vitro kinetic assay that employs the MT4-gag-GFP reporter cell line (Wang et al., “Assessment of the susceptibility of mutant HIV-1 to antiviral agents.” J Virological Methods 165:230-37 (2010)) to quantify the number of new cells infected in each round of replication. The purpose of the ViKinG assay is to identify agents that inhibit HIV progression. Briefly, HIV infection results in tat transactivation of the stably expressed HIV LTR promoter to drive gagGFP expression. Thus, an increase in the number of GFP-MT4 cells results following HIV infection.
MT4-GFP cells (250,000 cells/m1) were bulk-infected with HIV-1 (NL4-3 strain) at low multiplicity of infection (MOT) in RPMI+10% FBS for 24 hours. Cells were then washed once in RPMI+10% FBS and resuspended RPMI+10% or 50% normal human serum (NHS). Test compounds were serial-diluted in DMSO on an ECHO® liquid handling platform (Labcyte Corp., Sunnyvale, Calif.), along with a triple drug control (integrase, protease and NNRTI compounds). The infected MT4-GFP cells were added to a 384-well poly-D-lysine coated black plate with clear bottom in which the diluted test compounds were placed. The cells were seeded at 8,000 cells per well and the final DMSO concentration was 0.4%. The infected cells (Green GFP cells) were quantified at both 24 and 48 hours post incubation using Acumen® eX3 (TTP Labtech Ltd., Hertfordshire, United Kingdom). Viral reproductive ratio (R0) was determined using the number of infected cells at 48 hours divided by the number of infected cells at 24 hours. Percent viral growth inhibition was calculated by [1−(R−Rtripledrug)/(RDMSO−Rtripledrug)]*100. Compound potency IP or IC50 was determined by a 4-parameter dose response curve analysis.

WT-Integrase = molecular target: T1, WT-Integrase (Human immunodeficiency virus type 1 group M subtype B, UniProt P04585); assay: InSTANT integrase DNA strand transfer functional assay; format: biochemical, HIV; settings: SPA strand transfer, 15 minutes at 37° C.
T1 construct: assembled PVT SPA beads with WT-Integrase and boitinylated DNA
Method: InSTANT is an integrase DNA strand transfer functional assay used to determine potency of InSTIs, which was carried out as described below. 8 μl of SPA buffer (27.8 mM Hepes, 27.8 mM MgCl2, 111.1 μg/mL BSA, 5.56 mM βME, and 57.1 mM NaCl) containing 5 nM 3H-labeled target DNA (prepared separately) and 10 μl of assembled PVT SPA beads with WT-Integrase and boitinylated DNA (prepared separately) were added to the assay plate which contained 0.4 μl of test compound(s) or positive or negative control compound(s) per well. The assay plate was shaken for 1 minute on HT-91002 1.0 MM shaker and then was sealed and incubated for 15 minutes at 37° C. The assay reaction was quenched by adding 4 μl of 1.25 M EDTA to each well of the assay plate with mixing. After incubating the plate at room temperature for 1 hour, the quenched plate was spun at 200 g for 1 minute and read on TopCount (1 minute per well). Percent inhibition was calculated by [1−(Sample−Min)/(Max−Min)]*100. Compound potency IP or IC50 was determined by a 4-parameter dose response curve analysis.

Row | SMILES | IC50 (HIV-1 (NL4-3 strain)) [nM] | IC50 (WT-Integrase) [nM]
1 | C=C1CN(C)C(=O)c2c1c(=O)c(O)c1n2CCN(Cc2ccc(F)c(Cl)c2)C1=O [Compound 21, 8-(3-chloro-4-fluorobenzyl)-6-hydroxy-2-methyl-4-methylene-3,4,9,10-tetrahydro-1H-pyrazino[1,2-a][1,7]naphthyridine-1,5,7(2H,8H)-trione] | 155 | 2
2 | Cc1cn(C)c(=O)c2c1c(=O)c(O)c1n2CCN(Cc2ccc(F)c(Cl)c2)C1=O [Compound 22, 8-(3-chloro-4-fluorobenzyl)-6-hydroxy-2,4-dimethyl-9,10-dihydro-1H-pyrazino[1,2-a][1,7]naphthyridine-1,5,7(2H,8H)-trione] | 456 | 1
3 | CC1COCc2c1c(=O)c(O)c1n2CCN(Cc2ccc(F)c(Cl)c2)C1=O (stereo not shown) [Compound 25] | 351 | 21
4 | CC(C)c1c(CNC(=O)OC(C)(C)C)n2c(c(O)c1=O)C(=O)N(Cc1ccc(F)c(Cl)c1)CC2 [Compound 31, tert-butyl((2-(3-chloro-4-fluorobenzyl)-9-hydroxy-7-isopropyl-1,8-dioxo-2,3,4,8-tetrahydro-1H-pyrido[1,2-a]pyrazin-6-yl)methyl)carbamate] | 2610 | 42
5 | CC(C)c1c(CN)n2c(c(O)c1=O)C(=O)N(Cc1ccc(F)c(Cl)c1)CC2 [Compound 32, 6-(aminomethyl)-2-(3-chloro-4-fluorobenzyl)-9-hydroxy-7-isopropyl-3,4-dihydro-1H-pyrido[1,2-a]pyrazine-1,8(2H)-dione trifluoroacetate salt] | 151 | 14
